Results on six compounds are retold here after patent US20240287054A1, “COMPOUNDS THAT BIND NON-CANONICAL G-QUADRUPLEX STRUCTURES AND METHODS OF MAKING AND USING THE SAME” (The U.S.A., as Represented by the Secretary, Department of …, priority 2021, published 2024).

One data set has as its system dsDNA. Briefly: SPR binding to dsDNA. The note with it: up to 5 μM compound injection. In general terms: SPR reads the build-up and loss of mass on a sensor chip optically.
A further data set concerns the target MYCN hairpin-G4 DNA. The data set is described as follows: FIA using compound fluorescence (Ex 340/Em 500 nm), titration with unlabeled MYCN G4 DNA. In kind it is binding, human. The note with it: 100 nM compound titrated with folded unlabeled MYCN G4. Here is the method: In this study, FIA was used for validating the bindings between certain bivalent and MYCN G4 oligos. To measure the binding affinity, a solution of each compound was prepared in triplicate in a 96 well-plate (Costar, black side clear bottom), resulting in a final concentration of 100 nM (5% final DMSO in the working solution). Unlabeled MYCN G4 DNA was folded based on the above-mentioned annealing method, then added into the well plate resulting in different concentrations by a seral dilution. The plate was incubated at room temperature for 30 min, followed by centrifuging at 500 rpm for 2 minutes. The fluorescence intensity was then quantitatively recorded by a Synergy Mx microplate reader (BioTek) at Ex 340 nm/Em 500 nm. The fluorescence intensities were then normalized, and the binding affinity was calculated by fitting the curve using one-site total model in GraphPad Prism 8.3.1 software.

In a further data set the target is MYCN G4 DNA. The data set is described as follows: Surface plasmon resonance (SPR) with immobilized biotinylated MYCN G4 DNA. In kind it is binding, human. How it is done: Surface plasmon resonance (SPR) analysis. The SPR binding assays were performed with a BIAcore 3000 (GE Healthcare) instrument. A CM5 SPR biochip was loaded into the system and primed with running buffer (10 mM Tris, pH7.0, 100 mM KCl, 0.005% Tween 20, 5% DMSO) with a flow rate of 5 μL/min. Then both Flow Cell (Fc) 1 and 2 were activated by EDC/NHS (0.4 M/0.1 M) aqueous solution for 15 min, followed with an injection of streptavidin (SA) solution (0.2 mg/mL in 10 mM sodium acetate buffer, pH4.5) for 30 minutes. After the immobilization amount of SA reached 8,000-10,000 RU, the surface was deactivated by flowing 1 M Ethanolamine aqueous solution (pH 8.5) for 10 min and regenerated with 10 mM NaOH for 2 min to remove the unbound SA. In the meantime, biotinylated MYCN G4 DNA was prepared at 5 μM in the annealing buffer and heated up to 95° C. for 5 min and slowly cooled down. After annealing, a total of 150 μL solution was injected in the Fc 2 of SPR system for 30 min to immobilize DNA onto the chip surface. The small molecule solutions were tested once the baseline was stable.
To detect the binding signal as well as the binding affinity, a higher flowing rate (25 μL/min) was used in both Fc 1 (reference) and Fc 2 (DNA). Each of the compound solution was prepared at 20× designed the concentrations in DMSO, and then diluted into non-DMSO running buffer, resulting in a final concentration of 5% DMSO. Then, a total of 50 μL compound solution was injected in Fc 1-2 flow path for 120 s for association, followed with 200 s running of buffer for dissociation. An injection of 50 μL regeneration buffer (1 M KCl) could be performed between two samples if necessary. The final binding curve was obtained by reference subtraction. To determine the binding affinity (KD), a series of diluted compound solutions were injected and KD was calculated by BIAevaluation 4.0 software (GE Healthcare) using Langmuir 1:1 binding model.
In this example, SPR binding assays were performed to analyze binding activity of representative bivalent compounds of the present disclosure. The compounds of this example included a non-canonical binder component and a G4 stacker component. A BIAcore 3000 (GE Healthcare) instrument was used. A CM5 SPR biochip was used and primed with running buffer (10 mM Tris, pH7.0, 100 mM KCl, 0.005% Tween 20, 5% DMSO). To immobilize the compounds onto the chip surface, the flow rate was set as 5 μL/min. Then the carboxylated dextran on the chip surface was activated by EDC/NHS (0.4 M/0.1 M) aqueous solution for 15 min, followed with an injection of streptavidin (SA) solution (0.2 mg/mL in 10 mM sodium acetate buffer, pH 4.5) for 30 minutes. After the immobilization amount of SA, the surface was quenched by injecting 1 M ethanolamine (EA) aqueous solution (pH 8.5) for 10 min and regenerated with 10 mM NaOH for 2 min to remove the physical adsorption. Furthermore, biotinylated MYCN G4 DNA was prepared at 5 μM in the annealing buffer and heated up to 95° C. for 5 min followed with slowly cooling down to room temperature within 1 h. After annealing, a total of 150 μL solution was injected in the Fc 2 of SPR system for 30 min to immobilize DNA onto the chip surface. The compound solutions were then tested once the baseline was stable.
To detect the binding signal as well as the binding affinity, a higher flowing rate (25 μL/min) was used in both Fc 1 (blank) and Fc 2 (target). Each of the compound solutions was prepared at 20× designed the concentrations in DMSO, and then diluted into non-DMSO running buffer, resulting in a final concentration of 5% DMSO. Then, a total of 50 μL compound solution was injected in Fc 1-2 flow path for 120 s for association, followed with 200 s running of buffer for dissociation. An injection of 50 μL regeneration buffer (1 M KCl) could be performed between two samples if necessary. The final binding curve was obtained by referencing the blank channel (Fc 1). […]

Data set [1] can be described thus: Solubility / aggregation observations in binding buffers. Type of data set: physicochemical. The note with it: assay buffers, SPR sensorgrams. Here is the method:
A systematic binding assay between 14 analogs and MYCN G4 was performed by SPR and 2-AP (A11) fluorescence titration (FIGS. 26A-26N, 27A-27N). […] For 2-AP fluorescence titration assay (using an A11-substituted construct) observed KD values aligned well with SPR experiments, although the values were slightly lower overall. […] Taking all the SAR data into consideration, MY-8 was elected for cell-based assays.

In data set [2] the target is MYCN G4 DNA (2-AP at A11). The data set is described as follows: 2-Aminopurine (2-AP) fluorescence titration, A11-labeled MYCN G4. The note with it: 2-AP at A11 of MYCN G4. Type of data set: binding, human. Here is the method:
2-Aminopurine (2-AP) fluorescence titration. Fluorescence titrations based on 2-aminopurine labeling were performed using the protocol reported previously. Briefly, MYCN G4 oligonucleotide with a 2-AP substitution at either A11 or A18 position was annealed by heating the sample to 95° C. for 5 min and cooling down to RT slowly. The oligonucleotide with folded structure was diluted to 10 μM in Tris buffer (10 mM Tris, pH7.0, 100 mM KCl, 0.005% Tween 20) and prepared in a black 96-well plate (Costar) in triplicate as designed. Small molecules were diluted in DMSO to obtain a series of solutions with concentrations ranging from 0.1 to 5 mM, and then diluted by 20 times added into the plate (5% DMSO final concentration). The final concentration of 2-AP DNA was 1 μM in the well plate. To obtain the background fluorescence, small molecule solutions without DNA were also prepared in the same plate. After incubation for 30 min at RT, the plate was briefly centrifuged and scanned in Synergy Mx microplate reader (BioTek) with Ex 310 nm/Em 365 nm. Fluorescence signals were calculated by averaging the intensities in triplicate wells after subtracting the references. Finally, the binding signals were normalized and the KD value was determined by fitting the curve using a nonlinear sigmoidal dose-response model with a variable slope in GraphPad Prism 8.3.1 software.

In data set [3] the test system is MYCN G4 DNA (hairpin minor groove). The data set is described as follows: Fluorescence displacement assay with Hoechst 33258. In kind it is binding, human. The note with it: competitor added at 5 μM or 50 μM during DNA titration. How it is done: Fluorescence displacement assay. Fluorescence displacement assays were carried out by using two classical minor groove binders (Hoechst 33258 and netropsin). Hoechst 33258, as a fluorophore, was prepared at 5 μM concentration in the buffer (10 mM Tris, pH7.0, 100 mM KCl), and then titrated with different concentrations of unlabeled MYCN G4 oligonucleotides. For displacement, either compound MY-1 or netropsin was added into the solution resulting in a final concentration of 5 μM or 50 μM. Fluorescence signals were obtained with an excitation wavelength of 352 nm and an emission wavelength of 500 nm.

Data set [4] relates to 12 different G4 oligos as well as non-G4 oligos (dsDNA and ssDNA). Briefly: Small-scale DNA G4 microarray binding selectivity. The note with it: fluorescent compound incubated 1 h; B33 at 2.5 μM. How it is done:
In this example, a small-scale DNA G4 microarray containing 12 different G4 oligos as well as non-G4 oligos (dsDNA and ssDNA) was fabricated and tested (Table 4). To start with, a SA-coated glass surface was prepared. An amino-functionalized glass slide was firstly modified with a solution of N, N′-disuccinimidyl carbonate (DSC, 1.0 M) and N, N-diisopropylethylamine (DIPEA, 1.0 M) in DMF overnight at room temperature. After being washed successively with EtOH, Milli-Q water (5 min each) and dried with N2 gas, the slide was incubated with 1 mg/mL of SA solution for 12 h (overnight) in a 4° C. fridge, followed by blocking the surface with EA buffer for 30 minutes. Then, the slide was rinsed with PBS buffer and Milli-Q water, and dried b centrifugation (1,700 g, 2 min).
In parallel, biotin-labeled DNA/RNA oligos were prepared in annealing buffer resulting in 5 μM stock solutions, followed by annealing (according to above methods). Then all the oligo solutions were transferred into a 384-well plate. Next, the microarray printing was conducted by a robotic arrayer (Nanoprint, Arrayit, USA) with a humidity of 60%. After the microarray was fabricated, the slide was placed in a slide box with a piece of wet Kimwipe tissue and incubated at 4° C. for 2 h.
To incubate with the fluorescent compounds (compound B33, thiazole orange (“TO”), and amsacrine), the slide was thoroughly rinsed with PBST, PBS, and water to remove the unbounded oligos. Then, the slide was dried by centrifugation (1,700 g, 2 min) and quickly assembled with microarray gaskets (Agilent, USA), followed by loading the compound solutions. After 1 h incubation, the slide was washed and dried with the above-mentioned method. Finally, the microarray slide was imaged by a fluorescence scanner (Mapix) using green channel and the fluorescence intensities were quantified.

Data set [5] relates to ~19,000 different G4 sequences, G4 and non-G4 controls. The data set is described as follows: High-density DNA oligo microarray (~19,000 G4 sequences) selectivity profiling. Type of data set: binding. The note with it: 500 nM compound. The text has this: To further characterize the binding selectivity of compound B33, high-density and large-scale DNA microarrays that contained ˜19,000 different G4 sequences were fabricated and used. In this microarray, 340 reported G4s (G-rich sequences) as well as 280 non-G4s (C-rich sequences) were designed as positive and negative controls. Additionally, over 17,000 canonical G4 oligos with short loops (1˜7 nt) were also designed and synthesized by varying the loop sequences to meet the diversity of G4 structure. After folding the surface-grafted DNA oligos in high concentration of KCl buffer, TO and compound B33 solutions (500 nM) were incubated with the microarray, respectively. Then the slides were thoroughly washed, dried, and imaged by a fluorescent scanner using green channel. […] By quantifying the fluorescence intensity of each spot, the bindings of TO and compound B33 were further investigated. The kernel density estimate (KDE) plot and violin plot represented the distribution of the binding signals throughout the whole microarray. […] Compound B33 spectrum spanned a much wider range than that of TO. In the violin plot (FIG. 37C), the mean SNR value of TO group was 12, much higher than that of the compound B33 group. […] Furthermore, the selectivity of the two compounds were quantitatively profiled by using Gini coefficient. Gini coefficient, initially used as an economic concept, has been applied in profiling the selectivity/promiscuity of kinase inhibitors as well as RNA binders. A higher Gini value represents a better selectivity of a compound (Gini coefficient>0.75 is considered an excellent selectivity). The Gini coefficient based on the SNRs in the microarray.

Read-outs that look alike come from different tables or passages of the source.

A word on the Kd: it is the equilibrium constant for the complex coming apart. Take `COc1ccc(-c2noc(-c3ccc(NCCNc4c5ccc(Cl)cc5nc5ccc(OC)cc45)nn3)n2)cc1` [B32, N1-(6-chloro-2-methoxyacridin-9-yl)-N2-(6-(3-(4-methoxyphenyl)-1,2,4-oxadiazol-5-yl)pyridazin-3-yl)ethane-1,2-diamine]: the “binding to dsDNA on SPR” value with dsDNA is recorded as “bound to dsDNA at low micromolar level”. The Kd turned out to be 311 ± 52 nM at MYCN hairpin-G4 DNA and 303 ± 32 nM at MYCN G4 DNA (MYCN hairpin G4, SPR titration, read-out: KD by SPR).
`COc1ccc(-c2noc(-c3ccc(NCCCN4CCC(N5CCCCC5)CC4)nn3)n2)cc1` [MY-2]: in data set [1], the solubility / aggregation result is on record as “aggregation potential/poor solubility”. Further, in data set [2], the “A11 2AP KD” value is recorded as “sub-micromolar binders” and the dissociation constant (Kd) came out at 200 ± 30 nM. In addition, on MYCN G4 DNA (MYCN G4, Langmuir 1:1 model, read-out: SPR KD), the Kd amounted to 2600 ± 1900 nM.
Turning to `COc1ccc(-c2noc(-c3ccc(NCCC4=CCCCC4)nn3)n2)cc1` [MY-4], in data set [1], the solubility / aggregation entry is on record as “had solubility in suitable buffers”.
Regarding `COc1ccc(-c2noc(-c3ccc(NCCc4ccccc4)nn3)n2)cc1` [MY-9], in data set [1], the solubility / aggregation entry is recorded as “had solubility in suitable buffers”.
As for `Cn1cc(NC(=O)c2cc(NC(=O)CN=C(N)N)cn2C)cc1C(=O)NCCC(=N)N` [Netropsin, reference compound], the “displacement of Hoechst 33258 (decrease in fluorescence intensity)” value in data set [3] was “significant displacement”.
For `CN1C(=Cc2cc[n+](C)c3ccccc23)Sc2ccccc21` [TO], in data set [4], the “binding pattern in G4 microarray” value is “binding to most of the oligos except for dsDNA/ssDNA”. Besides, the “binding to the 620 G4 and non-G4 controls” value in data set [5] (340 G4s and 280 non-G4s) was “binding to both G4s and non-G4s”. Moreover, in data set [5] (based on SNRs in the microarray), the Gini coefficient is 0.236. In addition, the “mean SNR value” in data set [5] (whole microarray) came to 12.
